# Results: PubChem BioAssay (NCI)
#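 96-well plates; 48 h exposure; 5 concentrations. Endpoints by linear interpolation between flanking doses. Not reached: highest tested concentration assigned. TGI: total growth inhibition.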
# Experiments:
# Test in all cases: growth of human tumour cells (NCI), 48 h
# LOX IMVI melanoma = tested on: LOX IMVI melanoma
# A549 NSCLC = tested on: A549 NSCLC
# NCI-H522 lung = tested on: NCI-H522 lung
# COLO 205 colon = tested on: COLO 205 colon
# HCT-116 colon = tested on: HCT-116 colon
# M19-MEL melanoma = tested on: M19-MEL melanoma
# DLD-1 colon = tested on: DLD-1 colon
# SF-539 CNS = tested on: SF-539 CNS
# MALME-3M melanoma = tested on: MALME-3M melanoma
# CAKI-1 renal = tested on: CAKI-1 renal
# SN12C renal = tested on: SN12C renal
# SR leukemia = tested on: SR leukemia
# DMS 114 small cell lung = tested on: DMS 114 small cell lung
# SK-MEL-28 melanoma = tested on: SK-MEL-28 melanoma
# MOLT-4 leukemia = tested on: MOLT-4 leukemia
# UO-31 renal = tested on: UO-31 renal
# K-562 leukemia = tested on: K-562 leukemia
# HOP-18 NSCLC = tested on: HOP-18 NSCLC
# SK-MEL-5 melanoma = tested on: SK-MEL-5 melanoma
# KM20L2 colon = tested on: KM20L2 colon
# SF-268 CNS = tested on: SF-268 CNS
# M14 melanoma = tested on: M14 melanoma
# KM12 colon = tested on: KM12 colon
# HT29 colon = tested on: HT29 colon
# RXF 393 renal = tested on: RXF 393 renal
# SF-295 CNS = tested on: SF-295 CNS
# NCI-H226 lung = tested on: NCI-H226 lung
# HCT-15 colon = tested on: HCT-15 colon
# DMS 273 small cell lung = tested on: DMS 273 small cell lung
# OVCAR-4 ovarian = tested on: OVCAR-4 ovarian
# SK-MEL-2 melanoma = tested on: SK-MEL-2 melanoma
# SW-620 colon = tested on: SW-620 colon
# OVCAR-3 ovarian = tested on: OVCAR-3 ovarian
# NCI-H23 lung = tested on: NCI-H23 lung
# SNB-78 CNS = tested on: SNB-78 CNS
# OVCAR-5 ovarian = tested on: OVCAR-5 ovarian
# SK-OV-3 ovarian = tested on: SK-OV-3 ovarian
# ACHN renal = tested on: ACHN renal
# CCRF-CEM leukemia = tested on: CCRF-CEM leukemia
# LXFL 529 NSCLC = tested on: LXFL 529 NSCLC
# UACC-62 melanoma = tested on: UACC-62 melanoma
# TK-10 renal = tested on: TK-10 renal
# SNB-75 CNS = tested on: SNB-75 CNS
# HL-60(TB) leukemia = tested on: HL-60(TB) leukemia
# 786-0 renal = tested on: 786-0 renal
# IGROV1 ovarian = tested on: IGROV1 ovarian
# U251 CNS = tested on: U251 CNS
# HOP-92 NSCLC = tested on: HOP-92 NSCLC
# HOP-62 NSCLC = tested on: HOP-62 NSCLC
# NCI-H460 lung = tested on: NCI-H460 lung
# UACC-257 melanoma = tested on: UACC-257 melanoma
# RPMI-8226 leukemia = tested on: RPMI-8226 leukemia
# OVCAR-8 ovarian = tested on: OVCAR-8 ovarian
# MDA-MB-231 breast = tested on: MDA-MB-231 breast
# MCF7 breast = tested on: MCF7 breast
# MDA-MB-435 = tested on: MDA-MB-435
# NCI/ADR-RES ovarian = tested on: NCI/ADR-RES ovarian
# HS 578T breast = tested on: HS 578T breast
# MDA-N = tested on: MDA-N
# EKVX NSCLC = tested on: EKVX NSCLC
# SNB-19 CNS = tested on: SNB-19 CNS
# PC-3 prostate = tested on: PC-3 prostate
# HCC-2998 colon = tested on: HCC-2998 colon
# A498 renal = tested on: A498 renal
# DU-145 prostate = tested on: DU-145 prostate
# T-47D breast = tested on: T-47D breast
# BT-549 breast = tested on: BT-549 breast
smiles,measurement,setting,value
CC(=O)Nc1ccc(-c2nnc(SCC(=O)Nc3ccccc3[N+](=O)[O-])o2)cc1,TGI,LOX IMVI melanoma,> 100 µM
same,TGI,A549 NSCLC,> 100 µM
same,TGI,NCI-H522 lung,> 100 µM
same,TGI,COLO 205 colon,> 100 µM
same,TGI,HCT-116 colon,> 100 µM
same,TGI,M19-MEL melanoma,> 100 µM
same,TGI,DLD-1 colon,> 100 µM
same,TGI,SF-539 CNS,> 100 µM
same,TGI,MALME-3M melanoma,> 100 µM
same,TGI,CAKI-1 renal,> 100 µM
same,TGI,SN12C renal,> 100 µM
same,TGI,SR leukemia,> 100 µM
same,TGI,DMS 114 small cell lung,> 100 µM
same,TGI,SK-MEL-28 melanoma,> 100 µM
same,TGI,MOLT-4 leukemia,> 100 µM
same,TGI,UO-31 renal,> 100 µM
same,TGI,K-562 leukemia,> 100 µM
same,TGI,HOP-18 NSCLC,> 100 µM
same,TGI,SK-MEL-5 melanoma,> 100 µM
same,TGI,KM20L2 colon,> 100 µM
same,TGI,SF-268 CNS,> 100 µM
same,TGI,M14 melanoma,> 100 µM
same,TGI,KM12 colon,> 100 µM
same,TGI,HT29 colon,> 100 µM
same,TGI,RXF 393 renal,> 100 µM
same,TGI,SF-295 CNS,> 100 µM
same,TGI,NCI-H226 lung,> 100 µM
same,TGI,HCT-15 colon,> 100 µM
same,TGI,DMS 273 small cell lung,> 100 µM
same,TGI,OVCAR-4 ovarian,> 100 µM
same,TGI,SK-MEL-2 melanoma,> 100 µM
same,TGI,SW-620 colon,> 100 µM
same,TGI,OVCAR-3 ovarian,> 100 µM
same,TGI,NCI-H23 lung,> 100 µM
same,TGI,SNB-78 CNS,> 100 µM
same,TGI,OVCAR-5 ovarian,> 100 µM
same,TGI,SK-OV-3 ovarian,> 100 µM
same,TGI,ACHN renal,> 100 µM
same,TGI,CCRF-CEM leukemia,> 100 µM
same,TGI,LXFL 529 NSCLC,> 100 µM
same,TGI,UACC-62 melanoma,> 100 µM
same,TGI,TK-10 renal,> 100 µM
same,TGI,SNB-75 CNS,> 100 µM
same,TGI,HL-60(TB) leukemia,> 100 µM
same,TGI,786-0 renal,> 100 µM
same,TGI,IGROV1 ovarian,> 100 µM
same,TGI,U251 CNS,> 100 µM
same,TGI,HOP-92 NSCLC,> 100 µM
same,TGI,HOP-62 NSCLC,> 100 µM
same,TGI,NCI-H460 lung,> 100 µM
same,TGI,UACC-257 melanoma,> 100 µM
same,TGI,RPMI-8226 leukemia,> 100 µM
same,TGI,OVCAR-8 ovarian,> 100 µM
N#CC1N(C(=O)c2ccc(F)cc2)c2ccccc2N1C(=O)c1ccc(F)cc1,TGI,LOX IMVI melanoma,> 100 µM
same,TGI,A549 NSCLC,> 100 µM
same,TGI,NCI-H522 lung,> 100 µM
same,TGI,COLO 205 colon,45.6 µM
same,TGI,MDA-MB-231 breast,> 100 µM
same,TGI,HCT-116 colon,> 100 µM
same,TGI,SF-539 CNS,> 100 µM
same,TGI,MALME-3M melanoma,> 100 µM
same,TGI,CAKI-1 renal,> 100 µM
same,TGI,SN12C renal,> 100 µM
same,TGI,MCF7 breast,> 100 µM
same,TGI,MDA-MB-435,> 100 µM
same,TGI,SR leukemia,> 100 µM
same,TGI,NCI/ADR-RES ovarian,93.5 µM
same,TGI,HS 578T breast,> 100 µM
same,TGI,SK-MEL-28 melanoma,> 100 µM
same,TGI,MOLT-4 leukemia,82.8 µM
same,TGI,UO-31 renal,> 100 µM
same,TGI,K-562 leukemia,> 100 µM
same,TGI,SK-MEL-5 melanoma,63.2 µM
same,TGI,MDA-N,> 100 µM
same,TGI,SF-268 CNS,> 100 µM
same,TGI,M14 melanoma,> 100 µM
same,TGI,KM12 colon,> 100 µM
same,TGI,HT29 colon,> 100 µM
same,TGI,RXF 393 renal,> 100 µM
same,TGI,SF-295 CNS,> 100 µM
same,TGI,NCI-H226 lung,> 100 µM
same,TGI,HCT-15 colon,> 100 µM
same,TGI,EKVX NSCLC,> 100 µM
same,TGI,SNB-19 CNS,> 100 µM
same,TGI,OVCAR-4 ovarian,> 100 µM
same,TGI,SK-MEL-2 melanoma,> 100 µM
same,TGI,SW-620 colon,> 100 µM
same,TGI,OVCAR-3 ovarian,> 100 µM
same,TGI,NCI-H23 lung,> 100 µM
same,TGI,OVCAR-5 ovarian,> 100 µM
same,TGI,SK-OV-3 ovarian,> 100 µM
same,TGI,ACHN renal,> 100 µM
same,TGI,CCRF-CEM leukemia,87.2 µM
same,TGI,PC-3 prostate,> 100 µM
same,TGI,UACC-62 melanoma,> 100 µM
same,TGI,HCC-2998 colon,> 100 µM
same,TGI,TK-10 renal,> 100 µM
same,TGI,SNB-75 CNS,> 100 µM
same,TGI,HL-60(TB) leukemia,> 100 µM
same,TGI,A498 renal,> 100 µM
same,TGI,DU-145 prostate,> 100 µM
same,TGI,786-0 renal,> 100 µM
same,TGI,IGROV1 ovarian,> 100 µM
same,TGI,U251 CNS,> 100 µM
same,TGI,HOP-92 NSCLC,68.8 µM
same,TGI,HOP-62 NSCLC,> 100 µM
same,TGI,T-47D breast,> 100 µM
same,TGI,NCI-H460 lung,> 100 µM
same,TGI,UACC-257 melanoma,> 100 µM
same,TGI,BT-549 breast,77.3 µM
same,TGI,RPMI-8226 leukemia,75.4 µM
same,TGI,OVCAR-8 ovarian,> 100 µM
CC(C)OC(=O)c1ccc(CCC2=CC(=O)C(Br)=CC2=O)cc1,TGI,LOX IMVI melanoma,30.8 µM
same,TGI,A549 NSCLC,> 100 µM
same,TGI,NCI-H522 lung,19.3 µM
same,TGI,COLO 205 colon,24.7 µM
same,TGI,MDA-MB-231 breast,31.1 µM
same,TGI,HCT-116 colon,30.6 µM
same,TGI,SF-539 CNS,35.5 µM
same,TGI,MALME-3M melanoma,29.1 µM
same,TGI,CAKI-1 renal,38.4 µM
same,TGI,SN12C renal,31.1 µM
same,TGI,MCF7 breast,35.2 µM
same,TGI,MDA-MB-435,32.9 µM
same,TGI,SR leukemia,> 100 µM
same,TGI,NCI/ADR-RES ovarian,37.4 µM
same,TGI,HS 578T breast,38.1 µM
same,TGI,SK-MEL-28 melanoma,32.7 µM
same,TGI,MOLT-4 leukemia,14 µM
same,TGI,UO-31 renal,27.1 µM
same,TGI,K-562 leukemia,9.12 µM
same,TGI,SK-MEL-5 melanoma,25.7 µM
same,TGI,MDA-N,30.9 µM
same,TGI,SF-268 CNS,32.3 µM
same,TGI,M14 melanoma,31.2 µM
same,TGI,KM12 colon,26.5 µM
same,TGI,HT29 colon,31.8 µM
same,TGI,RXF 393 renal,31.2 µM
same,TGI,SF-295 CNS,39.6 µM
same,TGI,NCI-H226 lung,71.9 µM
same,TGI,HCT-15 colon,29.6 µM
same,TGI,EKVX NSCLC,31.1 µM
same,TGI,SNB-19 CNS,29.2 µM
same,TGI,OVCAR-4 ovarian,23.1 µM
same,TGI,SK-MEL-2 melanoma,41.7 µM
same,TGI,SW-620 colon,29.2 µM
same,TGI,OVCAR-3 ovarian,29 µM
same,TGI,NCI-H23 lung,26.2 µM
same,TGI,OVCAR-5 ovarian,42.1 µM
same,TGI,SK-OV-3 ovarian,> 100 µM
same,TGI,ACHN renal,27.8 µM
same,TGI,CCRF-CEM leukemia,5.06 µM
same,TGI,PC-3 prostate,31.8 µM
same,TGI,UACC-62 melanoma,31.3 µM
same,TGI,HCC-2998 colon,31.9 µM
same,TGI,TK-10 renal,45.3 µM
same,TGI,SNB-75 CNS,32.5 µM
same,TGI,HL-60(TB) leukemia,9.25 µM
same,TGI,A498 renal,> 85 µM
same,TGI,DU-145 prostate,63.3 µM
same,TGI,786-0 renal,30.2 µM
same,TGI,IGROV1 ovarian,27.8 µM
same,TGI,U251 CNS,29.8 µM
same,TGI,HOP-92 NSCLC,24.9 µM
same,TGI,HOP-62 NSCLC,63.1 µM
same,TGI,T-47D breast,45 µM
same,TGI,NCI-H460 lung,46.6 µM
same,TGI,UACC-257 melanoma,26.9 µM
same,TGI,BT-549 breast,16.8 µM
same,TGI,RPMI-8226 leukemia,43.3 µM
same,TGI,OVCAR-8 ovarian,32.8 µM
